# Assay results published in publication PMC4871484, “Functional Green-Tuned Proteorhodopsin from Modern Stromatolites” (PLoS ONE, 2016).
# Target: T1, E17R (E17-PR), green proteorhodopsin (Exiguobacterium sp. S17, UniProt S3FWZ0)
# T1 sequence (S3FWZ0 1-248): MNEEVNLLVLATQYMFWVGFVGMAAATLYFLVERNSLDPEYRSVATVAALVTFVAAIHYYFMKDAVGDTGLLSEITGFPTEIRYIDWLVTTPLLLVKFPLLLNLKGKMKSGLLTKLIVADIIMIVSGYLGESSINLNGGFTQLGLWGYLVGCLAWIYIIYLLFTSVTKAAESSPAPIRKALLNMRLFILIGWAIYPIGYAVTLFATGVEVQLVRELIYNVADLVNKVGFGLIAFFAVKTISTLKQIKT
# Assay: UV-vis absorption of purified holoprotein; hydroxylamine bleaching to retinal oxime
# Assay type: binding
# Conditions: covalent; Schiff base with lysine; […] HEPES, […] NaCl, […] DDM; room temperature
structure (smiles),measurement,value
CC1=C(/C=C/C(C)=C/C=C/C(C)=C/C=O)C(C)(C)CCC1 [retinal],UV-vis absorption of purified holoprotein; hydroxylamine bleaching to retinal ox,Expression and purification of E17R yielded after purification and retinal addition a protein with λmax
